From a melting point compilation (Tetko et al.; mined from patent text by program, amines drawn as free bases though some values may be those of a salt) come the findings set out here.

`CCCCc1c(CNC(=O)OC(C)(C)C)c(CC(C)C)nc2ccc(OCc3ccccc3)cc12`: the melting point was in the range of 131 to 132 °C.

For `CCCCCc1scc(C(=O)OC)c1NC1=CC(=O)N(CCC)C1`, the melting point is above 285 °C.

In turn, `C#CC(O)c1cccc2ccncc12` (centres undefined) returned a melting point of 138 to 139 °C.

Regarding `CCC12CCC3C4CCC(=O)C=C4CCC3C1CCC2C(C)=O` (centres undefined), the melting point fell in the range of 138 to 142 °C.

In the case of `COC1=C(OC)C(=O)C(CCCCCCCCCCCCCCCCCCO)=C(C)C1=O`, the melting point worked out at 81 °C.

For the compound `C=CC(O)c1ccc2ccccc2c1` (centres undefined), the melting point fell in the range of 30 to 32 °C.

As for `O=C1CCC(c2ccc3c(c2)CC(NC(=O)Nc2ccccc2)C3)=NN1` (centres undefined), the melting point was in the range of 249 to 251 °C.

Consider `CS(=O)(=O)N1CCN([C@@H](CNS(=O)(=O)c2ccc(OCc3ccc(C#N)cc3)cc2)C(=O)NO)CC1`, for which the melting point is 108 °C.

As for `O=C1c2cccc3c4c(cc(c23)C(=O)N1O)OCCO4`, the melting point lay in the range of 344 to 347 °C.

For `O=[N+]([O-])c1ccc(N2C[C@@H]3C[C@H]2CO3)c(F)c1`, the melting point lay in the range of 106 to 108 °C.

In turn, `CC(C)(C)[Si](C)(C)OC1CCN(S(=O)(=O)c2ccc(N3CCCCC3)cc2)C1=S` (centres undefined) yielded a melting point of 152 to 153 °C.

`O=C(Cc1ccccc1Cl)N[C@H]1C[C@H](C(=O)O)Nc2cc(Cl)cc(Cl)c21` (relative stereo): the melting point was in the range of 244 to 245 °C.

Turning to `O=C(Nc1ccccc1S(=O)(=O)NCCCn1cccn1)c1cccc(C(F)(F)F)c1`, the melting point was 108 to 111 °C.

`CCOC(=O)c1cc2cc3c(cc2oc1=O)OCO3`: the melting point is 200 to 201 °C.

On to `CN(C)C1=NC(=O)C(Cc2cccc(-c3ccc(O)c(C45CC6CC(CC(C6)C4)C5)c3)c2)S1` (centres undefined), for which the melting point is 243 to 246 °C.

For `COc1ccc(/C=C\c2ccc(OC)c(OC)c2OC)cc1`, the melting point lay within 55 to 57 °C.

In turn, `O=S(=O)(O)c1ccc(OC2=C(Oc3ccc(S(=O)(=O)O)cc3)C(F)(F)C(F)(F)C2(F)F)cc1` yielded a melting point of 251 to 255 °C.

Take `COC1CCC2C3CCC4CC(OC(=O)C(C)C)CCC4(C)C3CCC12C` (centres undefined): the melting point lay in the range of 82 to 87 °C.

`CN1C(=O)C(Br)=C(c2c[nH]c3c(OC(c4ccccc4)c4ccccc4)cccc23)C1=O` yielded a melting point of 205 °C.

In turn, `CC(C)(c1ccccc1)C(Sc1ccc(Cl)cc1)n1ccnc1` (centres undefined) registered a melting point of 77 to 79 °C.

With `CNCC(=O)Nc1ccc(S(=O)(=O)c2cccc(Cl)c2)cc1`, the melting point was 110 to 112 °C.

For the compound `OCc1cccc(-n2cccc2)n1`, the melting point was determined as 55 °C.

Consider `Cc1csc(N2CCN(CC(O)c3ccc(O)c(C(N)=O)c3)CC2)n1` (centres undefined), for which the melting point turned out to be 182 °C.

Regarding `O=CNN(Cc1ccccc1[N+](=O)[O-])c1ccccc1`, the melting point lay in the range of 140 to 142 °C.

For the compound `COC(=O)C(C)Oc1c(C#N)cnn1-c1ccc(C(F)(F)F)cc1Cl` (centres undefined), the melting point lay within 82 to 85 °C.

Compound `O=C1CCSc2c(O)cccc21` displayed a melting point of 225 to 232 °C.

Turning to `CN1NC=CC1c1ccc(C(=O)N2Cc3cccn3Cc3ccccc32)c(Cl)c1` (centres undefined), the melting point fell in the range of 78 to 79 °C.

Compound `O[C@H](COc1cccc2[nH]ccc12)CN1CCC(c2c[nH]c3c(Cl)c(Cl)ccc23)CC1` yielded a melting point of 192 to 197 °C.

With `Clc1ccc2c(c1)C(c1ccccc1)=NCc1nnc(Cc3ccccc3)n1-2`, the melting point was 190 to 192 °C.

On to `OC1(c2ccc(C(F)(F)F)cc2)CCNCC1`, for which the melting point fell in the range of 130 to 132 °C.

`CC(C)(C)c1cnnc(NN)n1` had a melting point of 117 to 118 °C.

For the compound `CC(=O)O[C@@H]1OCC[C@@H]1NC(=O)[C@H](CC(C)C)NS(=O)(=O)c1ccc(N)cc1`, the melting point lay in the range of 189 to 190 °C.

For `C1=C(c2c[nH]c3ccccc23)CCN(CC2COc3ccc4[nH]ccc4c3O2)C1` (centres undefined), the melting point was determined as 126 °C.

On to `CCCC1CCCNC1=O` (centres undefined), for which the melting point lay in the range of 75 to 76 °C.

As to `Cc1c(-c2ccc(OCc3ccccc3)cc2)n(Cc2ccc(OCCCCl)cc2)c2ccc(OCc3ccccc3)cc12`, the melting point was in the range of 130 to 132 °C.

`O=C(O)c1cc2c(c([N+](=O)[O-])c1)OC(C(Cl)(Cl)Cl)OC2C(Cl)(Cl)Cl` (centres undefined) gave a melting point of 211 to 212 °C.

For `Cc1ccccc1NS(=O)(=O)c1ccc(Br)cc1`, the melting point amounted to 114 °C.

In the case of `COC(=O)c1cc(=O)n(C)c2ccc(C(=O)c3ccc(Cl)cc3)cc12`, the melting point was determined as 182 °C.

`Cc1cc2c3c(cc(C)c2[nH]c1=O)CC(C)(CBr)O3` (centres undefined) registered a melting point of 257 to 259 °C.

Turning to `Cc1cc(C(=O)N2Cc3cccn3Cc3ccccc32)ccc1C1=CCCCC1C` (centres undefined), the melting point was 132 to 133 °C.

On to `Cc1ccc(-c2c(-c3ccc(S(N)(=O)=O)cc3)[nH]c3ccccc23)cc1`, for which the melting point was 293 to 295 °C.

Compound `NNC(=O)c1[nH]cc(OCc2ccccc2)c(=O)c1Br` showed a melting point of 184 °C.

As to `C=CCN1C(=O)N(CC=C)[C@@H](C(=O)O)[C@H]1C(=O)O`, the melting point fell in the range of 161 to 163 °C.

`Cc1ccc(Cc2cnc(NCCCN(Cc3ccc(Cl)cc3)c3ccccn3)[nH]c2=O)cn1` displayed a melting point of 88 to 92 °C.

In turn, `Cc1nc(N)nc(N)c1N1CCN(c2ccc(C(F)(F)F)cc2)CC1` registered a melting point of 255 to 258 °C.

In turn, `CCCc1cc(-c2noc3cc(O)ccc23)c(CC)cc1O` returned a melting point of 125 to 127 °C.

In turn, `COc1cc(C)cc(OC)c1-c1ccccc1C(=O)O` registered a melting point of 187 °C.

`COc1ccc(-c2ccnc3[nH]c4ccccc4c23)cc1` gave a melting point of 208 to 210 °C.

`CCCCN1CCSC1c1nsc2ccc(-n3c(=O)cc(C(F)(F)F)n(C)c3=O)cc12` (centres undefined) yielded a melting point of 78 to 82 °C.

On to `COc1ccc(-c2cc(CO)c(=O)n(CC3CCCC3)n2)cc1F`, for which the melting point fell in the range of 130 to 133 °C.

On to `O=C(Nc1ccc(N2CCN(C(=O)Nc3ccc(OCCO)cc3C(F)(F)F)CC2)cc1)Nc1cccc2c1OCCO2`, for which the melting point was in the range of 127 to 129 °C.

The compound `CC(C)=CCO[C@H]1NC(=O)[C@@H]1NC(=O)c1ccccc1` had a melting point of 92 °C.

Compound `CC(C)(CO)COc1ccc(-n2cc(C(=O)O)cn2)cc1C#N` had a melting point of 188 to 190 °C.

With `N#CC(Cl)CC(Cl)(Cl)C(=O)Oc1ccccc1` (centres undefined), the melting point was in the range of 51.5 to 52.5 °C.

With `CCCCc1nccn1-c1nc(Cl)nc2nc[nH]c12`, the melting point is 247 to 248 °C.

As to `CCCn1nc2c(N)nc3ccccc3c2c1CCN1CCCS1(=O)=O`, the melting point lay in the range of 201 to 202 °C.

`CCN(CC)C(=O)NC1CC2c3cccc4[nH]c(CC#CO)c(c34)CC2N(C)C1` (centres undefined) gave a melting point of 151 to 154 °C.

`CCOC1CN2CCC1CC2` (centres undefined) yielded a melting point of 96 to 98 °C.

In turn, `CCCc1nc(C)c2nnc3ccc(F)cc3n12` yielded a melting point of 124 to 126 °C.

The compound `CCCCCc1ccc(OC(=O)Oc2ccc([N+](=O)[O-])cc2)cc1` had a melting point of 67 to 69 °C.

As to `COc1cc2c(cc1OC)[C@@H]1CN(C)CC[C@@H]1N=C2c1ccc(NC(=O)C(C)(C)C)cc1` (relative stereo), the melting point was found to be 245 °C.

In turn, `CC(C)CCCC(C)C1CCC2C3CC=C4CC(OCCCCCCS)CCC4(C)C3CCC12C` (centres undefined) came in with a melting point of 89 to 90 °C.

Compound `COc1ccc(-n2nc(Sc3cc(Cl)cc(Cl)c3)c(C)c(C#N)c2=O)cc1` came in with a melting point of 195 to 197 °C.

Compound `CS(=O)C1=NS(=O)(=O)c2cc(Cl)ccc2N1` (centres undefined) came in with a melting point of 260 to 261 °C.

On to `COc1cc2c(cc1OC)C(=O)C(=Cc1cccc([N+](=O)[O-])c1)CC2`, for which the melting point lay within 186 to 187 °C.

In the case of `O=C(Nc1ccc(OCCN2CCOCC2)c2ccccc12)c1cccc(Br)c1`, the melting point was 90 to 93 °C.

On to `CCCCOC(C(=O)O)c1ccc2c(c1)C(C)(C)CCC2(C)C` (racemic), for which the melting point lay within 79 to 82 °C.

For `O=C(O)COc1cccc(-c2c3ccccc3c(Br)c3sc4ccccc4c23)c1`, the melting point lay within 180 to 181 °C.

Regarding `CC(=O)N1C(=O)NC(=O)C12c1ccccc1N(C)C(=O)N2C` (centres undefined), the melting point fell in the range of 261 to 263 °C.

In the case of `COc1ccc(-c2nc(C(F)(F)F)[nH]c2-c2ccc(S(C)(=O)=O)cc2)cc1OC`, the melting point fell in the range of 221 to 224 °C.

As to `COC(=O)c1ncc(N)nc1N`, the melting point fell in the range of 252 to 254 °C.

`FC(F)(F)c1ccc(I)c(I)c1` registered a melting point of 62 to 64 °C.

As to `Cc1ccc(-c2nc(CCOc3ccc(CN(O)C(N)=O)cc3)c(C)o2)cc1`, the melting point lay in the range of 145 to 146 °C.

Turning to `COC(=O)c1cccc2c1nc(/C=C/c1ccc(OC)c(OC)c1)n2C`, the melting point is 187 to 189 °C.

Regarding `CC(C)N(Cc1nc(-c2ncn3c2CN(C)C(=O)c2c-3ccc(F)c2Cl)no1)C(C)C`, the melting point lay in the range of 153 to 156 °C.

Consider `C/C(=C\c1ccc(C2(C)OCCO2)cc1)c1ccc2c(c1)C(C)(C)CCC2(C)C`, for which the melting point was 122 to 123 °C.

`Cc1sc(C(=O)OCc2ccccc2)cc1NC(=O)NCc1ccccc1` displayed a melting point of 208 to 209 °C.

`CC(=O)N[C@@H](CS)C(=O)NCCSC(C)=O` gave a melting point of 153 to 154 °C.

In turn, `CCN1CC(=O)N(C)c2cc(Nc3ncc(Cl)c(Nc4ccc(OC)c(CNCCO)c4)n3)c(OC)cc2C1` gave a melting point of 65 to 70 °C.

In turn, `CCc1sc2ccccc2c1C(=O)O` registered a melting point of 136 °C.

As for `O=C1C=C(NC(=O)C(=O)c2cn(Cc3cccc(Br)c3)c3ccccc23)CO1`, the melting point was 278 to 280 °C.

The compound `Cc1nnnn1-c1ccc(/C(=C\C2CCCC2)C(=O)O)cc1Cl` came in with a melting point of 216 to 219 °C.

The compound `CC(C)(C)c1ccc(COc2ccc(S(=O)(=O)NC[C@@H](C(=O)NO)N3CCOCC3)cc2)cc1` displayed a melting point of 137 °C.

As for `CC(C)Oc1cc(COc2cc(CCC(=O)O)n(-c3ccccc3)n2)cc(COc2ccc(Cl)cc2Cl)c1`, the melting point was in the range of 108 to 110 °C.

Compound `CCOC(=O)c1cn(-c2ccc(F)cc2F)c2nc(N3CCN(C(C)=O)CC3)c(F)cc2c1=O` displayed a melting point of 219 to 220 °C.

As for `CC(C)Nc1nc(-n2cccn2)nc(Cl)c1-c1c(F)cccc1Cl`, the melting point was in the range of 94 to 98 °C.

On to `CC(C)C(N)=NC(=Nc1ccccc1)N1CCOCC1`, for which the melting point was 123 to 126 °C.

`CC(CN1CCCC1)N1c2ccccc2Sc2ccc(C(=O)NCC3CCC3)cc21` (racemic) returned a melting point of 133 °C.

Compound `CN(C)CCOC(=O)c1cc2cccc(O)c2[nH]1` returned a melting point of 149 to 152 °C.
